Reference: patent US10940139B2, “Compounds that interact with the Ras superfamily for the treatment of cancers, inflammatory diseases, rasopathies, and fibrotic disease” (Shy Therapeutics LLC, priority 2017, dated 2021)

Key:
Rho-A = Rho-A (Homo sapiens (Human), UniProt P61586); assay: Rho inhibition assay (labeled GTP); format: binding; settings: read-out: Rho-A % Inh.
Rac-1 = Rac-1 (Homo sapiens (Human), UniProt P63000); assay: Rac inhibition assay (labeled GTP); format: binding; settings: read-out: Rac-1 % Inh.
KRas G12D mutant protein = KRas G12D mutant protein (Homo sapiens (Human), UniProt P01116, G12D); assay: Ras GTP binding domain inhibition assay (labeled GTP); settings: at 20 μM; read-out: KRas G12D % Inh.
KRas G12D mutant protein, sequence (P01116-2 other isoform, or with tags, fused parts or gaps G12D): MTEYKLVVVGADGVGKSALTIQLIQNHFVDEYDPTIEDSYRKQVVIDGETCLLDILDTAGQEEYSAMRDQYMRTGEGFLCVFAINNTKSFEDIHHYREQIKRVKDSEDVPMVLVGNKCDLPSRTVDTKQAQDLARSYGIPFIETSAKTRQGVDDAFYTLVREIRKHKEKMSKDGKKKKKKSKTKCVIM
Procedure: The following method was developed as specific assay for KRas G12D mutant protein.
Buffer-I: • 50 mM Tris, pH 7.5 • 150 mM NaCl (optional) • 1 mM MgCl2 • 1 mM DTT. • KRas G12D mutant protein was expressed as a His-tagged protein. Purified His-KRas G12D protein was diluted in buffer-I to a final concentration of 3-10 μg/ml. • 200 μl of the diluted His-KRas G12D protein was added to a nickel coated 96 well plate and incubated overnight at 4° C. • The next day, wells were washed 3× in 200 μl of Buffer-I. • Then 200 μl of Buffer-I were added to each well in the presence of 1% DMSO. • Tested compounds were added to the protein-coated wells at a concentration of 20 μM, and incubated for 3 hours at room temperature. While performing IC50 measurements a serial dilution of all tested concentrations was prepared.
Then 22 μl of Cy3-GTP or Cy5-GTP was added to each well. The labeled GTP was incubated for 45 min. at room temperature. • Following GTP incubation, wells were washed 3× in Buffer-I, and 200 μl of Buffer-I were added to each well. • Following washes, the amount of bound labeled-GTP was measured with an Eppendorf AF2200 plate reader.

Rho-A, sequence (P61586 whole entry): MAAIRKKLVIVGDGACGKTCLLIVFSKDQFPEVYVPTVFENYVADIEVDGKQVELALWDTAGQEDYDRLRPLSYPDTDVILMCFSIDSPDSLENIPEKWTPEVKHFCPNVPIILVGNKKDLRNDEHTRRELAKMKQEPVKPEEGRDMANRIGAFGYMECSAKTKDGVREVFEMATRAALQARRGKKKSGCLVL

SMILES | inhibition at 20 µM (Rho-A) | inhibition at 20 µM (Rac-1) | inhibition at 20 µM (KRas G12D mutant protein)
COCCNc1nc(-c2ccncn2)nc2sc(-c3ccccc3)c(-c3ccccc3)c12 [drawing 3892] | 1 to 25% | 1 to 25% | 0%
CCOCCNc1nc(-c2nccn2C)nc2sc(-c3ccccc3)c(-c3ccccc3)c12 [drawing 3893] | 51 to 75% | 51 to 75% | 51 to 75%
Cn1ccnc1-c1nc(NCCOC2CC2)c2c(-c3ccccc3)c(-c3ccccc3)sc2n1 [drawing 3894] | 1 to 25% | 25 to 50% | 1 to 25%
COCC(C)Nc1nc(-c2nccn2C)nc2sc(-c3ccccc3)c(-c3ccccc3)c12 (stereo not drawn) [drawing 3895] | 1 to 25% | 1 to 25% | 1 to 25%
CC(CO)Nc1nc(-c2nccn2C)nc2sc(-c3ccccc3)c(-c3ccccc3)c12 (stereo not drawn) [drawing 3896] | 1 to 25% | 1 to 25% | 1 to 25%
Cn1ccnc1-c1nc(NCCCO)c2c(-c3ccccc3)c(-c3ccccc3)sc2n1 [drawing 3897] | 51 to 75% | 51 to 75% | 51 to 75%
COCCNc1nc(-c2nccn2C)nc2sc(-c3ccccc3)c(-c3ccccc3Cl)c12 [drawing 3898] | 25 to 50% | 25 to 50% | 25 to 50%
COCCNc1nc(-c2nccn2C)nc2sc(-c3ccccc3Cl)c(-c3ccccc3)c12 [drawing 3899] | 25 to 50% | 0% | 1 to 25%
COCCNc1nc(-c2nccn2C)nc2sc(-c3ccncc3)c(-c3ccccc3)c12 [drawing 3900] | 51 to 75% | 51 to 75% | 51 to 75%
COCCNc1nc(-c2cn(C)cn2)nc2sc(-c3ccccc3)c(-c3ccccc3)c12 [drawing 3901] | 51 to 75% | 51 to 75% | 25 to 50%
COCCNc1nc(-c2nccn2C)nc2sc(C)c(-c3ccccc3)c12 [drawing 3902] | 51 to 75% | 51 to 75% | 51 to 75%
COCCNc1nc(-c2nccn2C)nc2sc(-c3cccc(OC)c3)c(-c3ccccc3)c12 [drawing 3904] | 51 to 75% | 1 to 25% | 25 to 50%
CC(C)COc1ccc(-c2c(-c3ccccc3)sc3c(O)nc(-c4nccn4C)nc23)cn1 [drawing 3905] | 51 to 75% | 51 to 75% | 51 to 75%
COCCNc1nc(-c2nccn2C)nc2sc(-c3ccccc3)c(-c3ccc(OC)cc3)c12 [drawing 3907] | 51 to 75% | 51 to 75% | 25 to 50%
COCCNc1nc(-c2nccn2C)nc2sc(C3CCOCC3)c(-c3ccccc3)c12 [drawing 3908] | 51 to 75% | 76 to 100% | 51 to 75%
COCCNc1nc(-c2cccc(N)n2)nc2sc(-c3ccccc3)c(-c3ccccc3)c12 [drawing 3909] | 0% | 0% | 0%
COc1ccc(-c2c(-c3ccccc3)sc3c(O)nc(-c4nccn4C)nc23)cn1 [drawing 3911] | 1 to 25% | 1 to 25% | 1 to 25%
COCCNc1nc(-c2nccn2C)nc2sc(-c3ccccc3)c(-c3ccncc3)c12 [drawing 3914] | 76 to 100% | 76 to 100% | 51 to 75%
COCCNc1nc(-c2nccn2C)nc2sc(-c3ccc(OC)cc3)c(-c3ccccc3)c12 [drawing 3915] | 1 to 25% | 25 to 50% | 25 to 50%
Cc1sc2c(O)nc(-c3nccn3C)nc2c1-c1ccc(OCC(C)C)nc1 [drawing 3918] | 1 to 25% | 25 to 50% | 1 to 25%
COc1ccc(-c2c(C)sc3c(O)nc(-c4nccn4C)nc23)cn1 [drawing 3919] | 0% | 1 to 25% | 1 to 25%
Cc1sc2c(O)nc(-c3nccn3C)nc2c1-c1ccc(OC(C)C)c(F)c1 [drawing 3928] | 25 to 50% | 51 to 75% | 51 to 75%
COCCNc1nc(-c2ccccn2)nc2sc(-c3ccccc3)c(-c3ccccn3)c12 [drawing 3938] | 25 to 50% | 1 to 25% | 1 to 25%

The next lines start with the values.

inhibition at 20 µM (Rho-A) | inhibition at 20 µM (Rac-1) | inhibition at 20 µM (KRas G12D mutant protein) | SMILES
51 to 75% | 51 to 75% | 25 to 50% | COCCNc1nc(-c2cn(C)cn2)nc2sc(C)c(-c3ccccc3)c12 [drawing 3903]
1 to 25% | 0% | 0% | Cn1ccnc1-c1nc(O)c2sc(-c3ccccc3)c(-c3ccccc3)c2n1 [drawing 3906]
0% | 1 to 25% | 0% | Cn1ccnc1-c1nc(O)c2sc(-c3ccccc3)c(-c3cccc(C(F)(F)F)c3)c2n1 [drawing 3910]
51 to 75% | 25 to 50% | 25 to 50% | Cc1sc2c(O)nc(-c3nccn3C)nc2c1-c1ccccc1 [drawing 3912]
51 to 75% | 51 to 75% | 51 to 75% | Cn1ccnc1-c1nc(O)c2sc(-c3ccccc3)c(-c3ccccc3Cl)c2n1 [drawing 3913]
25 to 50% | 51 to 75% | 25 to 50% | Cn1ccnc1-c1nc(O)c2scc(-c3cccc(C(F)(F)F)c3)c2n1 [drawing 3916]
0% | 25 to 50% | 1 to 25% | Cc1sc2c(O)nc(-c3nccn3C)nc2c1-c1cccc(C(F)(F)F)c1 [drawing 3917]
51 to 75% | 51 to 75% | 25 to 50% | Cc1sc2c(O)nc(-c3nccn3C)nc2c1-c1ccccc1Cl [drawing 3920]
25 to 50% | 51 to 75% | 51 to 75% | Cn1ccnc1-c1nc(O)c2scc(-c3cccc(OC(F)(F)F)c3)c2n1 [drawing 3921]
25 to 50% | 25 to 50% | 25 to 50% | Cn1cnc(-c2nc(O)c3scc(-c4cccc(C(F)(F)F)c4)c3n2)c1 [drawing 3922]
25 to 50% | 25 to 50% | 1 to 25% | CC(C)COc1ccc(-c2csc3c(O)nc(-c4cn(C)cn4)nc23)cn1 [drawing 3923]
25 to 50% | 25 to 50% | 25 to 50% | Cn1cnc(-c2nc(O)c3scc(-c4cccc(OC(F)(F)F)c4)c3n2)c1 [drawing 3924]
1 to 25% | 1 to 25% | 1 to 25% | Oc1nc(-c2ccncn2)nc2c(-c3cccc(C(F)(F)F)c3)csc12 [drawing 3925]
51 to 75% | 51 to 75% | 25 to 50% | Oc1nc(-c2ncccn2)nc2c(-c3cccc(C(F)(F)F)c3)csc12 [drawing 3926]
25 to 50% | 51 to 75% | 25 to 50% | CC(C)Oc1ccc(-c2csc3c(O)nc(-c4nccn4C)nc23)cc1F [drawing 3927]
25 to 50% | 51 to 75% | 25 to 50% | CC(C)Oc1ccc(-c2c(-c3ccccc3)sc3c(O)nc(-c4nccn4C)nc23)cc1F [drawing 3929]
51 to 75% | 51 to 75% | 76 to 100% | CC(C)COc1ccc(-c2csc3c(O)nc(-c4nccn4C)nc23)cn1 [drawing 3930]
51 to 75% | 51 to 75% | 51 to 75% | COc1ccc(-c2csc3c(O)nc(-c4nccn4C)nc23)cn1 [drawing 3931]
25 to 50% | 51 to 75% | 51 to 75% | Cn1ccnc1-c1nc(O)c2scc(-c3ccccc3)c2n1 [drawing 3932]
51 to 75% | 51 to 75% | 25 to 50% | Cn1ccnc1-c1nc(O)c2scc(-c3ccccc3Cl)c2n1 [drawing 3933]
25 to 50% | 51 to 75% | 25 to 50% | Cn1ccnc1-c1nc(O)c2scc(-c3ccc(F)cc3F)c2n1 [drawing 3934]
51 to 75% | 51 to 75% | 25 to 50% | Cn1ccnc1-c1nc(O)c2scc(-c3cccc(Cl)c3)c2n1 [drawing 3935]
51 to 75% | 25 to 50% | 25 to 50% | COC(C)(C)c1ccc(-c2csc3c(O)nc(-c4nccn4C)nc23)cc1 [drawing 3936]
25 to 50% | 25 to 50% | 1 to 25% | Cn1ccnc1-c1nc(O)c2scc(-c3ccc(C(C)(C)C)cc3)c2n1 [drawing 3937]
1 to 25% | 1 to 25% | 1 to 25% | Cc1sc2c(O)nc(-c3nccn3C)nc2c1-c1ccc(F)cc1F [drawing 3939]
